# Data published in patent US20260297070A1, “CYCLIC [COMPOUND LEFT OUT] WRN INHIBITORS” (Nimbus Wadjet, Inc., priority 2023, published 2026).
# Molecular target: T1, human Werner helicase (WRN-BV08, Uniprot Q14191, amino acids 517-1235 with L1074F point mutation) (Homo sapiens, UniProt Q14191, L1074F)
# T1 construct: Uniprot Q14191, amino acids 517-1235 with L1074F point mutation; TEV-cleavable 8×His (C, cleaved yes); made in house; host or cells: Sf9 insect cells (baculovirus)
# Assay: WRN (BV08) ADP-Glo Assay
# Format: biochemical
# Settings: 0.15 nM WRN, 5 μM ATP, 0.1 nM DNA duplex, 15 min preincubation, 60 min at 25° C., pH 7.5, 1% DMSO; read-out: ADP-Glo_hWRN_IC50
# In short: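 WRN 0.15 nM + cpd, 15 min 25 °C; add 5 μM ATP / 0.1 nM annealed DNA duplex; 60 min 25 °C; ADP-Glo stop, RLU. Buffer 20 mM Bicine pH 7.5, 1 mM MgCl2, 10 mM KCl, 1 mM TCEP. IC50, 4-parameter fit.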
# T1 sequence (Q14191 with tags, fused parts or gaps L1074F limits assumed): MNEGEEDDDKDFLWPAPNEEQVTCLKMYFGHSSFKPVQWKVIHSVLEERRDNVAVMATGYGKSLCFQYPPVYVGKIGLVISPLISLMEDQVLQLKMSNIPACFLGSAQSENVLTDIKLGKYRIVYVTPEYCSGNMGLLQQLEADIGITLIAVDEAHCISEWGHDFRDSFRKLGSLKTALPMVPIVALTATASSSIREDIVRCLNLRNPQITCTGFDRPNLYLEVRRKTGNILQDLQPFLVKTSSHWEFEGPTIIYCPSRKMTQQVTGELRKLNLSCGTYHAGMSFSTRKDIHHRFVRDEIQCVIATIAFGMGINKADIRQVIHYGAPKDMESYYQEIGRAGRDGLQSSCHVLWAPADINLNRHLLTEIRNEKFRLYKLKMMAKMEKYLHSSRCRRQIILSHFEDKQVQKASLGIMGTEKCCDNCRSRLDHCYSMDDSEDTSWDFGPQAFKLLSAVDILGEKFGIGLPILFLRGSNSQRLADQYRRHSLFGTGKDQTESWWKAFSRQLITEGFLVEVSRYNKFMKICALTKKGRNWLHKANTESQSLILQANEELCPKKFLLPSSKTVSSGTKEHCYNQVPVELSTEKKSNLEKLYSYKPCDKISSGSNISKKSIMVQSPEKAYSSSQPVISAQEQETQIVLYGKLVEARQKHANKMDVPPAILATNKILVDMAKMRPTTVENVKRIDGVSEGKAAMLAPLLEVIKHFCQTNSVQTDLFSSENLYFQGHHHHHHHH
row,IC50 [µM],SMILES
1,< 0.5,"COc1cc(CN(C(=O)C(c2ccc(-c3ccc(F)c(F)c3)cc2F)n2ccnn2)[C@@H]2C=CS(=O)(=O)C2)ccn1 (stereo partly drawn) [I-732, N-[(3R)-1,1-dioxo-2,3-dihydro-1lambda6-thiophen-3-yl]-N-[(2-methoxypyridin-4-yl)methyl]-2-(1H-1,2,3-triazol-1-yl)-2-{3,3′,4′-trifluoro-[1,1′-biphenyl]-4-yl}acetamide]"
2,0.5 to 5,"CC(C)(O)c1cc(CN(C(=O)C(OCC2CC(F)(F)C2)c2ccc(-c3ccc(F)c(F)c3)cc2F)[C@@H]2C=CS(=O)(=O)C2)ccn1 (stereo in doubt) [I-792, rel-2-[(3,3-difluorocyclobutyl)methoxy]-N-[(3R)-1,1-dioxo-2,3-dihydro-1lambda6-thiophen-3-yl]-N-{[2-(2-hydroxypropan-2-yl)pyridin-4-yl]methyl}-2-{3,3′,4′-trifluoro-[1,1′-biphenyl]-4-yl}acetamide]"
3,0.5 to 5,"COc1cc(CN(C(=O)C(C)n2cc(-c3ccc(F)cc3)cn2)[C@@H]2C=CS(=O)(=O)C2)ccn1 (stereo partly drawn) [I-137, N-[(3R)-1,1-dioxo-2,3-dihydro-1lambda6-thiophen-3-yl]-2-[4-(4-fluorophenyl)-1H-pyrazol-1-yl]-N-[(2-methoxypyridin-4-yl)methyl]propanamide]"
4,< 0.5,"CC(C)(O)c1cc(CN(C(=O)C(OC(F)F)c2ccc(-c3ccc(F)c(F)c3)cc2F)[C@@H]2C=CS(=O)(=O)C2)ccn1 (single isomer, unassigned) [I-632]"
5,10 to 50,"CN(C)C(C(=O)N(Cc1ccnc(C(C)(C)O)c1)C1C=CS(=O)(=O)C1)c1ccc(-c2ccc(F)c(F)c2)cc1F (stereo not shown) [I-307, 2-(dimethylamino)-N-(1,1-dioxo-2,3-dihydro-1lambda6-thiophen-3-yl)-N-{[2-(2-hydroxypropan-2-yl)pyridin-4-yl]methyl}-2-{3,3′,4′-trifluoro-[1,1′-biphenyl]-4-yl}acetamide]"
6,< 0.5,"COc1cc(CN(C(=O)Cc2ccc(-c3ccc(F)c(F)c3)cc2F)C2C=CS(=O)(=O)C2)ccn1 (single isomer, unassigned) [I-35]"
7,> 50,"O=C1CCCN1c1ccc(CC(=O)N(Cc2ccncc2)C2C=CS(=O)(=O)C2)cc1 (stereo not shown) [I-444, N-(1,1-dioxo-2,3-dihydro-1lambda6-thiophen-3-yl)-2-[4-(2-oxopyrrolidin-1-yl)phenyl]-N-[(pyridin-4-yl)methyl]acetamide]"
8,0.5 to 5,"COc1cc(CN(C(=O)Cc2ccc(-n3cccc3)cc2F)C2C=CS(=O)(=O)C2)ccn1 (stereo not shown) [I-95, N-(1,1-dioxo-2,3-dihydro-1lambda6-thiophen-3-yl)-2-[2-fluoro-4-(1H-pyrrol-1-yl)phenyl]-N-[(2-methoxypyridin-4-yl)methyl]acetamide]"
9,10 to 50,"O=C(Cc1ccc(C(F)(F)F)cc1Br)N(Cc1ccncc1)C1C=CS(=O)(=O)C1 (stereo not shown) [I-293, 2-[2-bromo-4-(trifluoromethyl)phenyl]-N-(1,1-dioxo-2,3-dihydro-1lambda6-thiophen-3-yl)-N-[(pyridin-4-yl)methyl]acetamide]"
10,0.5 to 5,"CC(C)(O)c1cc(CN(C(=O)C2CNc3cc(-c4ccc(F)cc4)ccc32)C2C=CS(=O)(=O)C2)ccn1 (stereo not shown) [I-98, N-(1,1-dioxo-2,3-dihydro-1lambda6-thiophen-3-yl)-6-(4-fluorophenyl)-N-{[2-(2-hydroxypropan-2-yl)pyridin-4-yl]methyl}-2,3-dihydro-1H-indole-3-carboxamide]"
11,10 to 50,"O=C(Cc1ccc(-n2cccc2)cc1)N(Cc1cc(F)ccc1F)C1C=CS(=O)(=O)C1 (stereo not shown) [I-278, N-[(2,5-difluorophenyl)methyl]-N-(1,1-dioxo-2,3-dihydro-1lambda6-thiophen-3-yl)-2-[4-(1H-pyrrol-1-yl)phenyl]acetamide]"
12,< 0.5,"CC(C)(O)c1csc(CN(C(=O)Cn2cc(-c3cc(F)c(F)c(F)c3)cn2)C2C=CS(=O)(=O)C2)n1 (stereo not shown) [I-797, N-(1,1-dioxo-2,3-dihydro-1lambda6-thiophen-3-yl)-N-{[4-(2-hydroxypropan-2-yl)-1,3-thiazol-2-yl]methyl}-2-[4-(3,4,5-trifluorophenyl)-1H-pyrazol-1-yl]acetamide]"
13,0.5 to 5,"COc1cc(CN(C(=O)Cc2ccc(-c3ccc(F)cc3O)nc2)C2C=CS(=O)(=O)C2)ccn1 (single isomer, unassigned) [I-130]"
14,< 0.5,"C=CCOC(C(=O)N(Cc1ccnc(C(C)(C)O)c1)[C@@H]1C=CS(=O)(=O)C1)c1ccc(-c2ccc(F)c(F)c2)cc1F (single isomer, unassigned) [I-641]"
15,> 50,"O=C(Cc1ccc(-c2nn[nH]n2)cc1)N(Cc1ccncc1)C1C=CS(=O)(=O)C1 (stereo not shown) [I-370, N-(1,1-dioxo-2,3-dihydro-1lambda6-thiophen-3-yl)-N-[(pyridin-4-yl)methyl]-2-[4-(2H-1,2,3,4-tetrazol-5-yl)phenyl]acetamide]"
16,> 50,"Cc1nn(CC(=O)N(Cc2ccncc2)C2C=CS(=O)(=O)C2)cc1-c1ccccc1 (stereo not shown) [I-446, N-(1,1-dioxo-2,3-dihydro-1lambda6-thiophen-3-yl)-2-(3-methyl-4-phenyl-1H-pyrazol-1-yl)-N-[(pyridin-4-yl)methyl]acetamide]"
17,0.5 to 5,"COc1cc(CN(C(=O)C(OCC#N)c2ccc(-c3ccc(F)c(F)c3)cc2F)[C@@H]2C=CS(=O)(=O)C2)ccn1 (stereo partly drawn) [I-691, 2-(cyanomethoxy)-N-[(3R)-1,1-dioxo-2,3-dihydro-1lambda6-thiophen-3-yl]-N-[(2-methoxypyridin-4-yl)methyl]-2-{3,3′,4′-trifluoro-[1,1′-biphenyl]-4-yl}acetamide]"
18,0.5 to 5,"COc1cc(CN(C(=O)C(O/C=C/S(C)(=O)=O)c2ccc(-c3ccc(F)c(F)c3)cc2F)[C@@H]2C=CS(=O)(=O)C2)ccn1 (stereo partly drawn) [I-793, N-[(3R)-1,1-dioxo-2,3-dihydro-1lambda6-thiophen-3-yl]-2-{[(1E)-2-methanesulfonylethenyl]oxy}-N-[(2-methoxypyridin-4-yl)methyl]-2-{3,3′,4′-trifluoro-[1,1′-biphenyl]-4-yl}acetamide]"
19,< 0.5,"CC(C)(O)c1cc(CN(C(=O)Cn2cc(-c3cccc(F)c3)cn2)C2C=CS(=O)(=O)C2)ccn1 (stereo not shown) [I-59, N-(1,1-dioxo-2,3-dihydro-1lambda6-thiophen-3-yl)-2-[4-(3-fluorophenyl)-1H-pyrazol-1-yl]-N-{[2-(2-hydroxypropan-2-yl)pyridin-4-yl]methyl}acetamide]"
20,> 50,"COc1cc(CN(C(=O)Cc2ccc(-n3cccc3C)cc2F)[C@H]2C=CS(=O)(=O)C2)ccn1 [I-425, N-[(3S)-1,1-dioxo-2,3-dihydro-1lambda6-thiophen-3-yl]-2-[2-fluoro-4-(2-methyl-1H-pyrrol-1-yl)phenyl]-N-[(2-methoxypyridin-4-yl)methyl]acetamide]"
21,0.5 to 5,"COc1cc(CN(C(=O)Cc2ccc(-n3cccc3C)cc2)C2C=CS(=O)(=O)C2)ccn1 (stereo not shown) [I-119, N-(1,1-dioxo-2,3-dihydro-1lambda6-thiophen-3-yl)-N-[(2-methoxypyridin-4-yl)methyl]-2-[4-(2-methyl-1H-pyrrol-1-yl)phenyl]acetamide]"
22,< 0.5,"CC(C)(O)c1cc(CN(C(=O)C(F)(F)c2ccc(-c3ccc(F)c(F)c3)cc2F)[C@@H]2C=CS(=O)(=O)C2)ccn1 [I-38, (R)—N-(1,1-dioxido-2,3-dihydrothiophen-3-yl)-2,2-difluoro-N-((2-(2-hydroxypropan-2-yl)pyridin-4-yl)methyl)-2-(3,3′,4′-trifluoro-[1,1′-biphenyl]-4-yl)acetamide]"
